The conditions of series [1]: therapeutic use; several daily doses of tablets required; cited from earlier work.
The next series deals with T1, histamine-H2 receptors (Cavia porcellus, UniProt P47747).
T1 construct: in vitro on isolated guinea-pigs' atrium; from tissue; host or cells: isolated guinea-pig atrium (right atrium per b6)
The experiment in a line: pA2-values in vitro on isolated guinea-pigs' atrium (H2-antagonistic activity). More on the design: species or system guinea-pig. The text has this: J. Pharmacol. Chemother. ", 27, 427 (1966) and Black et al, "Nature", 236, 385 (1971)].
One recognized method of determining the H2 -antagonistic activity is the determination of the pA2 -values in vitro on isolated guinea-pigs' atrium (see Ariens, Molecular Pharmacology, Volume 1, Academic Press, New York, 1964).

Broadly, the Kb is the equilibrium dissociation constant of an antagonist, usually derived from a functional assay.

T1 sequence (P47747 whole entry): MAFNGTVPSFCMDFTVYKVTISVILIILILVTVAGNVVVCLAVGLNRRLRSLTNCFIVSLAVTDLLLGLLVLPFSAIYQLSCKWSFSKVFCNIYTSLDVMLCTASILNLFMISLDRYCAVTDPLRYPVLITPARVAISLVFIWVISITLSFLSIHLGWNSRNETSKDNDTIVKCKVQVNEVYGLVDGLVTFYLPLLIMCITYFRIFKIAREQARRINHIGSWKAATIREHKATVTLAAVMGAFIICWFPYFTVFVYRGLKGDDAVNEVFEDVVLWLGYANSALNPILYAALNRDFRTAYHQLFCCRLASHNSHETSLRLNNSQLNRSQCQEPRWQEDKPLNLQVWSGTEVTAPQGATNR

On to `CNC(=C[N+](=O)[O-])NCCSCc1ccc(CN(C)C)o1` [ranitidine], for which the half life result in series [1] is “relatively short half life”.
`[O-][s+]1nc(NCC(O)COc2cccc(CN3CCCCC3)c2)c(NCC(O)COc2cccc(CN3CCCCC3)c2)n1` (stereo not drawn) [Example 4] gave a Kb on histamine-H2 receptors of 7.24 nM.
On to `CN/C(=N/CCSCc1nc[nH]c1C)NC#N` [Cimetidine], for which the half life entry in series [1] is on record as “relatively short half life”.
